Laboratory results published in ChEMBL document CHEMBL4261501, “Design, synthesis and biological evaluation of imidazopyridine-propenone conjugates as potent tubulin inhibitors” (Medchemcomm, 2017).
One block for each compound: values may come before it. Calls of active or inactive are those of the source. No cut-off for these calls is given here.

Experiments:
[1] = tested on: DU-145; assay: Cytotoxicity against human DU145 cells after 48 hrs by MTT assay; assay type: functional, cell-based; details: DU-145, 48 h
[2] = tested on: A549; assay: cells; details: Homo sapiens, A549, 48 h
Description: Cytotoxicity against human A549 cells after 48 hrs by MTT assay

[3] = tested on: HeLa; assay: cells; details: Homo sapiens, 48 h
Description: Cytotoxicity against human HeLa cells after 48 hrs by MTT assay

[4] = tested on: MCF7; assay: cells; details: Homo sapiens, MCF7, 48 h
Description: Cytotoxicity against human MCF7 cells after 48 hrs by MTT assay

[5] = tested on: A549; assay: Induction of apoptosis in human A549 cells assessed as cytoplasmic condensation at 0.5 uM after 48 hrs by Hoechst 33258 staining based fluorescence microscopic analysis; assay type: functional, cell-based
[6] = tested on: A549; assay: Cell cycle arrest in human A549 cells assessed as accumulation at sub-G1 phase at 0.5 uM after 48 hrs by propidium iodide staining based flow cytometry (reference value: 1.11%); assay type: functional
[7] = tested on: A549; assay: Cell cycle arrest in human A549 cells assessed as accumulation at sub-G1 phase at 1 uM after 48 hrs by propidium iodide staining based flow cytometry (reference value: 1.11%); assay type: functional
[8] = tested on: A549; assay: Cell cycle arrest in human A549 cells assessed as accumulation at G0/G1 phase at 0.5 uM after 48 hrs by propidium iodide staining based flow cytometry (reference value: 90.52%); assay type: functional
[9] = tested on: A549; assay: Cell cycle arrest in human A549 cells assessed as accumulation at G0/G1 phase at 1 uM after 48 hrs by propidium iodide staining based flow cytometry (reference value: 90.52%); assay type: functional
[10] = tested on: A549; assay: Cell cycle arrest in human A549 cells assessed as accumulation at S phase at 0.5 uM after 48 hrs by propidium iodide staining based flow cytometry (reference value: 1.92%); assay type: functional
[11] = tested on: A549; assay: Cell cycle arrest in human A549 cells assessed as accumulation at S phase at 1 uM after 48 hrs by propidium iodide staining based flow cytometry (reference value: 1.92%); assay type: functional
[12] = tested on: A549; assay: Cell cycle arrest in human A549 cells assessed as accumulation at G2/M phase at 0.5 uM after 48 hrs by propidium iodide staining based flow cytometry (reference value: 7.4%); assay type: functional
[13] = tested on: A549; assay: Cell cycle arrest in human A549 cells assessed as accumulation at G2/M phase at 1 uM after 48 hrs by propidium iodide staining based flow cytometry (reference value: 7.4%); assay type: functional
[14] = target: Tubulin (Homo sapiens) (UniProt P68371+Q9H4B7+P0DPH7+P68366+Q13509+Q71U36+P04350+Q3ZCM7+P07437+P68363+Q9BQE3+Q6PEY2+Q13885+Q9BVA1+Q9BUF5); assay: Inhibition of tubulin polymerization (unknown origin) at 3 uM after 1 hr by fluorescence assay relative to control; assay type: protein-complex assay
[15] = target: Tubulin; assay: Inhibition of tubulin polymerization (unknown origin) after 1 hr by fluorescence assay; assay type: protein-complex assay, Homo sapiens
[16] = tested on: A549; assay: Disruption of microtubule organization in human A549 cells at 0.5 uM after 48 hrs by fluorescence microscopic analysis; assay type: cell-based
[17] = tested on: A549; assay: Induction of apoptosis in human A549 cells assessed as formation of apoptotic bodies at 0.5 uM after 48 hrs by Hoechst 33258 staining based fluorescence microscopic analysis; assay type: functional, cell-based
[18] = tested on: A549; assay: Induction of apoptosis in human A549 cells assessed as nuclear fragmentation at 0.5 uM after 48 hrs by Hoechst 33258 staining based fluorescence microscopic analysis; assay type: functional, cell-based
[19] = tested on: A549; assay: Induction of mitochondrial membrane potential loss in human A549 cells assessed as collapse of the mitochondrial membrane potential at 0.5 uM after 48 hrs by JC1 staining based flow cytomtery (reference value: 3.5%); assay type: functional
[20] = tested on: A549; assay: Induction of mitochondrial membrane potential loss in human A549 cells assessed as intact mitochondrial membrane at 0.5 uM after 48 hrs by JC1 staining based flow cytomtery (reference value: 96.3%); assay type: functional
[21] = tested on: A549; assay: Induction of mitochondrial membrane potential loss in human A549 cells assessed as collapse of the mitochondrial membrane potential at 1 uM after 48 hrs by JC1 staining based flow cytomtery (reference value: 3.5%); assay type: functional
[22] = tested on: A549; assay: Induction of mitochondrial membrane potential loss in human A549 cells assessed as intact mitochondrial membrane at 1 uM after 48 hrs by JC1 staining based flow cytomtery (reference value: 96.3%); assay type: functional
[23] = tested on: A549; assay: Induction of apoptosis in human A549 cells assessed as necrotic cells at 0.5 uM after 48 hrs by Annexin V-FITC/propidium iodide staining based flow cytometry (reference value: 1.17%); assay type: functional
[24] = tested on: A549; assay: Induction of apoptosis in human A549 cells assessed as late apoptotic cells at 0.5 uM after 48 hrs by Annexin V-FITC/propidium iodide staining based flow cytometry (reference value: 3.83%); assay type: functional
[25] = tested on: A549; assay: Induction of apoptosis in human A549 cells assessed as live cells at 0.5 uM after 48 hrs by Annexin V-FITC/propidium iodide staining based flow cytometry (reference value: 93.97%); assay type: functional
[26] = tested on: A549; assay: Induction of apoptosis in human A549 cells assessed as early apoptotic cells at 0.5 uM after 48 hrs by Annexin V-FITC/propidium iodide staining based flow cytometry (reference value: 1.03%); assay type: functional
[27] = tested on: A549; assay: Induction of apoptosis in human A549 cells assessed as necrotic cells at 1 uM after 48 hrs by Annexin V-FITC/propidium iodide staining based flow cytometry (reference value: 1.17%); assay type: functional
[28] = tested on: A549; assay: Induction of apoptosis in human A549 cells assessed as late apoptotic cells at 1 uM after 48 hrs by Annexin V-FITC/propidium iodide staining based flow cytometry (reference value: 3.83%); assay type: functional
[29] = tested on: A549; assay: Induction of apoptosis in human A549 cells assessed as live cells at 1 uM after 48 hrs by Annexin V-FITC/propidium iodide staining based flow cytometry (reference value: 93.97%); assay type: functional
[30] = tested on: A549; assay: Induction of apoptosis in human A549 cells assessed as early apoptotic cells at 1 uM after 48 hrs by Annexin V-FITC/propidium iodide staining based flow cytometry (reference value: 1.03%); assay type: functional

IC50 [2]: 2.88 µM
IC50 [3]: 3.71 µM
IC50 [4]: 18.9 µM
SMILES: O=C(/C=C\Nc1cnc2ccccc2c1)c1c(-c2ccc(Cl)cc2)nc2ccccn12
IC50 [1]: 4.17 µM

inhibition [14]: 66.5%
IC50 [15]: 1.93 µM
IC50 [2]: 0.933 µM
IC50 [3]: 1.48 µM
IC50 [4]: 2.69 µM
SMILES: O=C(/C=C\Nc1ccc(Br)cc1)c1c(-c2ccc(Cl)cc2)nc2ccccn12
Activity [5]: Active
IC50 [1]: 1.5 µM
Activity [6]: 0.66%
Activity [7]: 0.86%
Activity [8]: 83.28%
Activity [9]: 65.94%
Activity [10]: 2.68%
Activity [11]: 5.62%
Activity [12]: 14.4%
Activity [13]: 29.84%
Activity [16]: Active
Activity [17]: Active
Activity [18]: Active
Activity [19]: 20.3%
Activity [20]: 75.9%
Activity [21]: 30.1%
Activity [22]: 63.9%
Activity [23]: 1.6 - 1.64%
Activity [24]: 9.9 - 9.94%
Activity [25]: 66.5 - 66.51%
Activity [26]: 21.9 - 21.91%
Activity [27]: 1.38 - 1.4%
Activity [28]: 18.06 - 18.1%
Activity [29]: 46.59 - 46.6%
Activity [30]: 33.97 - 34%

inhibition [14]: 68.2%
IC50 [15]: 1.82 µM
IC50 [2]: 0.861 µM
IC50 [3]: 1.22 µM
IC50 [4]: 1.81 µM
SMILES: O=C(/C=C\Nc1ccc2ncccc2c1)c1c(-c2ccccc2)nc2ccccn12
Activity [5]: Active
IC50 [1]: 1.08 µM
Activity [6]: 0.5%
Activity [7]: 0.91%
Activity [8]: 82.37%
Activity [9]: 66.32%
Activity [10]: 2.77%
Activity [11]: 4.28%
Activity [12]: 15.69%
Activity [13]: 30.5%
Activity [16]: Active
Activity [17]: Active
Activity [18]: Active
Activity [19]: 22.5%
Activity [20]: 73.5%
Activity [21]: 31.7%
Activity [22]: 60.8%
Activity [23]: 0.75 - 0.8%
Activity [24]: 11.35 - 11.4%
Activity [25]: 64.98 - 65%
Activity [26]: 22.9 - 22.92%
Activity [27]: 1.07 - 1.1%
Activity [28]: 18.5 - 18.52%
Activity [29]: 45.4 - 45.42%
Activity [30]: 34.99 - 35%

IC50 [2]: 1.57 µM
IC50 [3]: 14.9 µM
IC50 [4]: 7.61 µM
SMILES: COc1ccc(N/C=C\C(=O)c2c(-c3ccccc3)nc3ccccn23)cc1
IC50 [1]: 2.19 µM

IC50 [2]: 1.75 µM
IC50 [3]: 3.08 µM
IC50 [4]: 5.17 µM
SMILES: O=C(/C=C\Nc1cnc2ccccc2c1)c1c(-c2ccccc2)nc2ccccn12
IC50 [1]: 2.44 µM

IC50 [2]: 11 µM
IC50 [3]: 13.6 µM
IC50 [4]: 18.9 µM
SMILES: COc1ccc(-c2nc3ccccn3c2C(=O)/C=C\Nc2ccc3[nH]ccc3c2)cc1
IC50 [1]: 11.3 µM

Continued, compound first:

SMILES: COc1ccc(-c2nc3ccccn3c2C(=O)/C=C\Nc2ccc3cc[nH]c3c2)cc1
IC50 [1]: 10.7 µM
IC50 [2]: 8.8 µM
IC50 [3]: 15.3 µM
IC50 [4]: 19.4 µM

SMILES: COc1cc(N/C=C\C(=O)c2c(-c3ccccc3)nc3ccccn23)cc(OC)c1
IC50 [1]: 2.92 µM
IC50 [2]: 2.24 µM
IC50 [3]: 3.09 µM
IC50 [4]: 10.2 µM

SMILES: COc1ccc(N/C=C\C(=O)c2c(-c3ccc(OC)cc3)nc3ccccn23)cc1
IC50 [1]: 11.1 µM
IC50 [2]: 12.7 µM
IC50 [3]: 19.9 µM
IC50 [4]: 16.5 µM

SMILES: COC(=O)Nc1nc2cc(C(=O)c3cccs3)ccc2[nH]1 [NOCODAZOLE]
IC50 [1]: 1.26 µM
Activity [7]: 0.79%
Activity [9]: 66.92%
Activity [11]: 4.55%
Activity [13]: 29.68%
inhibition [14]: 66.8%
Activity [16]: Active
Activity [21]: 22.6%
Activity [22]: 73.5%
Activity [27]: 1.1 - 1.11%
Activity [28]: 16.2 - 16.23%
Activity [29]: 51.48 - 51.5%
Activity [30]: 31.19 - 31.2%
IC50 [2]: 1.39 µM
IC50 [3]: 1.61 µM
IC50 [4]: 1.09 µM

SMILES: COc1cc(N/C=C\C(=O)c2c(-c3ccc(Cl)cc3)nc3ccccn23)cc(OC)c1OC
IC50 [1]: 3.25 µM
IC50 [2]: 1.14 µM
IC50 [3]: 3.02 µM
IC50 [4]: 3.39 µM
